Source: patent publication US20180311342A1, “IMMUNOSTIMULATING AGENT” (AJINOMOTO CO., INC., priority 2017, published 2018)

Experiments:
Type in all cases: in vivo, BALB/c mice
[1] = test system: anti-OVA-specific IgG2a subclass antibody; test: Adjuvant activity test: anti-OVA-specific IgG2a subclass antibody in serum of OVA-immunized mice (ELISA); settings: after primary immunization, serum 2 weeks later; OVA 5 μg + compound 0.256 μmol in 5% αCD-added saline (Addavax mixed with saline at 1:1), dorsal-subcutaneous; compared to OVA single administration group
[2] = test system: anti-OVA-specific IgG1 subclass antibody; test: Adjuvant activity test: anti-OVA-specific IgG1 subclass antibody in serum of OVA-immunized mice (ELISA); settings: after secondary immunization, serum 2 weeks later; OVA 5 μg + compound 0.256 μmol in 5% αCD-added saline (Addavax mixed with saline at 1:1), dorsal-subcutaneous; compared to OVA single administration group
Description: (§1) 8-Week-old female BALB/c mice were divided into groups (N=6), and each group was primarily immunized by dorsal-subcutaneous administration of (1) ovalbumin (OVA) (5 μg) dissolved in saline as an antigen (OVA single administration group), (2) OVA 5 μg and Addavax™ (mixed with saline at 1:1) dissolved in saline (Addavax™ administration group) as positive control adjuvant, (3) OVA 5 μg and SZ137 0.256 μmol dissolved or dispersed in 5% α-cyclodextrin (hereinafter to be simply referred to as αCD)-added saline (SZ137 administration group), (4) OVA (5 μg) and SZ138 (0.256 μmol) dissolved or dispersed in 5% αCD-added saline (SZ138 administration group), (5) OVA (5 μg) and SZ142 (0.256 μmol) dissolved or dispersed in 5% αCD-added saline (SZ142 administration group), (6) OVA (5 μg) and SZ144 (0.256 μmol) dissolved or dispersed in 5% αCD-added saline (SZ144 administration group), (7) OVA (5 μg) and SZ145 (0.256 μmol) dissolved or dispersed in 5% αCD-added saline (SZ145 administration group), (8) OVA (5 μg) and SZ146 (0.256 μmol) dissolved or dispersed in 5% αCD-added saline (SZ146 administration group), (9) OVA (5 μg) and SZ147 (0.256 μmol) dissolved or dispersed in 5% αCD-added saline (SZ147 administration group), (10) OVA (5 μg) and SZ148 (0.256 μmol) dissolved or dispersed in 5% αCD-added saline (SZ148 administration group), each per mouse. Two week later, the secondary immunization was carried out by dorsal-subcutaneous administration of solutions or dispersions similar to those of the above-mentioned (1)-(10) again. Two weeks from the secondary immunization, the whole blood was extracted under anesthesia, and the obtained serum sample was measured for anti-OVA-specific IgG1 subclass antibody, anti-OVA-specific IgG2a subclass antibody, and anti-OVA-specific IgE antibody.
(§2) The measurement method of the anti-OVA-specific IgG1 subclass antibody and anti-OVA-specific IgG2a subclass antibody in Experimental Example 1 and the following Experimental Examples 2-10 is as follows.
(§3) To a 96 well plate was added 5 μg/ml OVA at 100 µl/well, and the mixture was incubated at 4° C. overnight. After incubation, the mixture was washed three times with 200 μl of PBS-T (PBS (phosphate buffered saline)+0.05% (v/v) Tween 20) per well, and blocked with 100 μl of 5% FCS (fetal calf serum)/PBS solution per well at room temperature for 1-2 hr. Thereafter, the mixture was washed three times with PBS-T (200 μl/well), a diluted serum sample (100 l/well) or the same amount of 5% FCS/PBS solution as a control was added, and the mixture was incubated at 37° C. for 1 hr. To calculate concentration of the antibody, the standard of an anti-OVA-specific IgG1 subclass antibody diluted with 2% FCS/PBS solution was added at 100 ng/ml, 50 ng/ml, 25 ng/ml, 12.5 ng/ml, 6.25 ng/ml, 3.125 ng/ml, 1.56 ng/ml, 0.781 ng/ml, 0.391 ng/ml, 0.195 ng/ml, 0.098 ng/ml, 0 ng/ml, per 1 well. When an anti-OVA-specific IgG2a subclass antibody was measured, the standard of an anti-OVA-specific IgG2a subclass antibody was added at 50 ng/ml, 25 ng/ml, 12.5 ng/ml, 6.25 ng/ml, 3.125 ng/ml, 1.56 ng/ml, 0.781 ng/ml, 0.391 ng/ml, 0.195 ng/ml, 0.098 ng/ml, 0.049 ng/ml, 0 ng/ml, per 1 well. Thereafter, similar to the samples, the mixture was washed five times with PBS-T (200 μl/well), a diluted biotinylated anti-mouse IgG1 antibody and IgG2a antibody were added (100 μl/well), and the mixture was incubated at 37° C. for 45 min. Thereafter, the mixture was washed five times with PBS-T (200 μl/well), a diluted anti-biotin-HRP antibody was added (100 μl/well), and the mixture was incubated at 37° C. for another 30 min. Thereafter, the mixture was washed five times with PBS-T (200 μl/well), TMB substrate solution was added (100 μl/well), and the mixture was incubated at room temperature for 10-15 min. Thereafter, a reaction quenching liquid (2N sulfuric acid solution) was added (50 l/well) to discontinue a color developing reaction, and the absorbance (OD Value=450 nm) was measured by a microplate reader. […]

[3] = test system: anti-OVA-specific IgG2a subclass antibody; test: Adjuvant activity test: anti-OVA-specific IgG2a subclass antibody in serum of OVA-immunized mice (ELISA); settings: after secondary immunization, serum 2 weeks later; OVA 5 μg + compound 0.256 μmol in 5% αCD-added saline (Addavax mixed with saline at 1:1), dorsal-subcutaneous; compared to OVA single administration group
Description: as §1, §2, §3

[4] = test system: anti-OVA-specific IgG1 subclass antibody; test: Adjuvant activity test: anti-OVA-specific IgG1 subclass antibody in serum of OVA-immunized mice (ELISA); settings: after primary immunization, serum 2 weeks later; OVA 5 μg + compound 0.256 μmol in 5% αCD-added saline (Addavax mixed with saline at 1:1), dorsal-subcutaneous; compared to OVA single administration group

| Compound | anti-OVA-specific IgG2a subclass antibody production [1] | anti-OVA-specific IgG1 subclass antibody production [2] | anti-OVA-specific IgG2a subclass antibody production [3] | anti-OVA-specific IgG1 subclass antibody production [4] |
| --- | --- | --- | --- | --- |
| CCCCCCCCCCCCCCCCCC(=O)N[C@@H](CCCCN)C(=O)NCCCCCCCC.Cl [SZ184, N-[(1S)-5-amino-1-(octylcarbamoyl)pentyl]octadecanamide hydrochloride] | a tendency toward increase was found | showed a tendency to increase | showed a tendency to increase | a tendency toward increase was found |
| CCCCCCCCCCCCCCCCCC(=O)N[C@@H](CCCCN)C(=O)NCCCCCCCCCCCC.Cl [SZ185, N-[(1S)-5-amino-1-(dodecylcarbamoyl)pentyl]octadecanamide hydrochloride] | significant enhancement | significant enhancement | significant enhancement | significant enhancement |
| CCCCCCCCCCCCNC(=O)[C@H](CCCNC(=N)N)NC(=O)OCCCCCCCCCCCC.Cl [SZ187, dodecyl N-[(1S)-1-(dodecylcarbamoyl)-4-guanidino-butyl]carbamate hydrochloride] | significant enhancement | showed a tendency to increase | significant enhancement | significant enhancement |
| CCCCCCCCCCCCCCCCOC(=O)N[C@@H](CCCCN)C(=O)NCCCCCCCC.Cl [SZ188, hexadecyl N-[(1S)-5-amino-1-(octylcarbamoyl)pentyl]carbamate hydrochloride] | a tendency toward increase was found | showed a tendency to increase | showed a tendency to increase | a tendency toward increase was found |
| CCCCCCCCCCCCCCCCOC(=O)N[C@@H](CCCCN)C(=O)NCCCCCCCCCCCC.Cl [SZ189, hexadecyl N-[(1S)-5-amino-1-(dodecylcarbamoyl)pentyl]carbamate hydrochloride] | a tendency toward increase was found | significant enhancement | significant enhancement | a tendency toward increase was found |
| CCCCCCCCCCCCCCCCNC(=O)NCCCCNC(=N)N.Cl [SZ190, 1-(4-guanidinobutyl)-3-hexadecyl-urea hydrochloride] | a tendency toward increase was found | showed a tendency to increase | showed a tendency to increase | a tendency toward increase was found |
| CCCCCCCCCCCCCCCCCC(=O)N[C@H](CCCNC(=N)N)C(=O)NCCCCCCCCCCCC.Cl [SZ191, N-[(1R)-1-(dodecylcarbamoyl)-4-guanidino-butyl]octadecanamide hydrochloride] | significant enhancement | significant enhancement | significant enhancement | significant enhancement |
| CCCCCCCCCCCCCCCCNC(=O)N[C@H](CCCNC(=N)N)C(=O)NCCCCCCCCCCCC.Cl [SZ193, (2R)—N-dodecyl-5-guanidino-2-(hexadecylcarbamoylamino)pentanamide hydrochloride] | significant enhancement | showed a tendency to increase | showed a tendency to increase | significant enhancement |
| CCCCCCCCCCCCCCCC(=O)N[C@H](CCCCN)C(=O)NCCCCCCCCCCCC.Cl [SZ194, N-[(1R)-5-amino-1-(dodecylcarbamoyl)pentyl]hexadecanamide hydrochloride] | Significant enhancement | showed a tendency to increase | showed a tendency to increase | tended to increase |
| CCCCCCCCCCCCCCCCCC(=O)N[C@@H](CC(C)C)C(=O)NCCCCCCCCCCCC [SZ195, N-[(1S)-1-(dodecylcarbamoyl)-3-methyl-butyl]octadecanamide] | tended to increase | tended to increase | tended to increase | tended to increase |
| CCCCCCCCCCCCCCCCCC(=O)N[C@@H](CC(C)C)C(=O)NCCCCCCCC [SZ196, N-[(1S)-3-methyl-1-(octylcarbamoyl)butyl]octadecanamide] | tended to increase | significant enhancement | tended to increase | tended to increase |
| CCCCCCCCCCCCCCCCCCCCCC(=O)N[C@@H](CC(C)C)C(=O)NCCCCCCCCCCCC [SZ197, N-[(1S)-1-(dodecylcarbamoyl)-3-methyl-butyl]docosanamide] | tended to increase | tended to increase | tended to increase | tended to increase |
| CCCCCCCCCCCCCCCCCCCCCC(=O)N[C@@H](CC(C)C)C(=O)NCCCCCCCC [SZ198, N-[(1S)-3-methyl-1-(octylcarbamoyl)butyl]docosanamide] | tended to increase | tended to increase | tended to increase | tended to increase |
